Usually Ki stands for the equilibrium dissociation constant of an inhibitor or competing ligand from its target. Higher therefore signals lower affinity.

The experiment concerns the target T1, hCRTH2 (Homo sapiens, UniProt Q9Y5Y4).
T1 construct: expressed in transfected cells; host or cells: HEK (human embryonic kidney) cells expressing hCRTH2; membrane preparation
T1 sequence (Q9Y5Y4 1-395): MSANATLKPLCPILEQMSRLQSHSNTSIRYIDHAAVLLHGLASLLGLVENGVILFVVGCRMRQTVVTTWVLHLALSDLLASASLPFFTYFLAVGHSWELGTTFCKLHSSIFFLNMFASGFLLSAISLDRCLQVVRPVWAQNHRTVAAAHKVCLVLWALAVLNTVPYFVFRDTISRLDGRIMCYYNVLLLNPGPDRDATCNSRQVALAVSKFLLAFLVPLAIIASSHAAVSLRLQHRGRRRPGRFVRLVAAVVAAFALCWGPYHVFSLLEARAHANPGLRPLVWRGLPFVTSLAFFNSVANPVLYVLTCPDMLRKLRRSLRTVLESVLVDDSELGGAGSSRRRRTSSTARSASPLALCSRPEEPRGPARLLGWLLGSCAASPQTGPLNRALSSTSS
Description: Radioligand binding assay ([3H]PGD2 competition, HEK-hCRTH2 membranes). The essentials: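 Competition binding with 3.0 nM [3H]PGD2 and 8-20 μg HEK-hCRTH2 membrane protein in 50 mM Tris-HCl pH 7.4, 1 mM EDTA, 2 mM MnCl2, 1% Me2SO, 60 min at room temperature. Nonspecific binding defined with 10 μM PGD2; bound radioactivity counted after filtration.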

The mark [1] stands for this setting: [3H]PGD2 binding, values in text.

Compound `O=C(O)CCCCc1nc2cc(C(=O)N3CCC4(CC3)OCc3ccccc34)ccc2nc1-c1ccc(Cl)cc1` [compound 633, 5-(3-(4-chlorophenyl)-7-(3H-spiro[isobenzofuran-1,4′-piperidin]-1′-ylcarbonyl)quinoxalin-2-yl)pentanoic acid] returned a Ki ([3H]PGD2 competition, Table B) of 0.0001 to 0.002 µM.

With `O=C(O)CCCCc1nc2cc(C(=O)N3CCC4(CC3)CCN(c3ccccc3)C4=O)ccc2nc1-c1ccc(Cl)cc1` [compound 634, 5-(3-(4-chlorophenyl)-7-(1-oxo-2-phenyl-2,8-diazaspiro[4.5]decane-8-carbonyl)quinoxalin-2-yl)pentanoic acid], for the setting “[3H]PGD2 competition, Table B”, the Ki was in the range of 0.0021 to 0.02 µM.

On to `O=C(O)CCCCc1nc2cc(C(=O)N3CCN(c4cccc(Cl)c4Cl)CC3)ccc2nc1-c1ccc(Cl)cc1` [compound 635, 5-(3-(4-chlorophenyl)-7-(4-(2,3-dichlorophenyl)piperazine-1-carbonyl)quinoxalin-2-yl)pentanoic acid], for which, for the setting “[3H]PGD2 competition, Table B”, the Ki lay in the range of 0.0001 to 0.002 µM.

`Cc1ccc(N2CCN(C(=O)c3ccc4nc(-c5ccc(Cl)cc5)c(CCCCC(=O)O)nc4c3)CC2)c(C)c1` [compound 636, 5-(3-(4-chlorophenyl)-7-(4-(2,4-dimethylphenyl)piperazine-1-carbonyl)quinoxa1in-2-yl)pentanoic acid] returned a Ki ([3H]PGD2 competition, Table B) of 0.0001 to 0.002 µM.

For the compound `C[C@H](NC(=O)c1ccc2nc(-c3ccccc3)c(CCCCC(=O)O)nc2c1)c1cncc2ccccc12` [compound 637, (S)-5-(7-((1-(isoquinolin-4-yl)ethyl)carbamoyl)-3-phenylquinoxalin-2-yl)pentanoic acid], the Ki under setting [1] was 0.0042 µM and the Ki ([3H]PGD2 competition, Table B) was 0.0021 to 0.02 µM.

Take `C[C@@H](NC(=O)c1ccc2nc(-c3ccccc3)c(CCCCC(=O)O)nc2c1)c1cncc2ccccc12` [compound 638, (R)-5-(7-((1-(isoquinolin-4-yl)ethyl)carbamoyl)-3-phenylquinoxalin-2-yl)pentanoic acid]: for the setting “[3H]PGD2 competition, Table B”, the Ki fell in the range of 0.201 to 0.7 µM.

`C[C@@H](NC(=O)c1ccc2nc(-c3ccccc3)c(CCCCC(=O)O)nc2c1)c1cccc2ncccc12` [compound 639, (R)-5-(3-phenyl-7-((1-(quinolin-5-yl)ethyl)carbamoyl)quinoxalin-2-yl)pentanoic acid] returned a Ki ([3H]PGD2 competition, Table B) of 0.0201 to 0.2 µM.

The compound `C[C@H](NC(=O)c1ccc2nc(-c3ccccc3)c(CCCCC(=O)O)nc2c1)c1cccc2ncccc12` [compound 640, (S)-5-(3-phenyl-7-((1-(quinolin-5-yl)ethyl)carbamoyl)quinoxalin-2-yl)pentanoic acid] came in with a Ki ([3H]PGD2 competition, Table B) of 0.0021 to 0.02 µM.

As to `O=C(O)CCCCc1nc2cc(C(=O)N[C@@H]3CCOc4ccc(F)cc43)ccc2nc1-c1ccccc1` [compound 641, (R)-5-(7-((6-fluoro-chroman-4-yl)carbamoyl)-3-phenylquinoxalin-2-yl)pentanoic acid], the Ki ([3H]PGD2 competition, Table B) is 0.0021 to 0.02 µM.

Where the note is “[3H]PGD2 competition, Table B”, `O=C(O)CCCCc1nc2cc(C(=O)N[C@@H]3CCOc4cc(F)c(F)cc43)ccc2nc1-c1ccccc1` [compound 642, (R)-5-(7-((6,7-difluorochroman-4-yl)carbamoyl)-3-phenylquinoxalin-2-yl)pentanoic acid] came in with a Ki of 0.0021 to 0.02 µM.

As for `O=C(O)CCCCc1nc2cc(C(=O)N[C@@H]3CCOc4cc(F)ccc43)ccc2nc1-c1ccccc1` [compound 643, (R)-5-(7-((7-fluoro-chroman-4-yl)carbamoyl)-3-phenylquinoxalin-2-yl)pentanoic acid], the Ki ([3H]PGD2 competition, Table B) was 0.0001 to 0.002 µM.

For the setting “[3H]PGD2 competition, Table B”, `C[C@@H](c1ccccc1)N(C)C(=O)c1ccc2nc(-c3ccc(Cl)cc3)c(CCCCC(=O)O)nc2c1` [compound 644, (S)-5-(3-(4-chloro-phenyl)-7-(methyl(1-phenylethyl)carbamoyl)quinoxalin-2-yl) pentanoic acid] displayed a Ki of 0.0021 to 0.02 µM.

Take `O=C(O)CCCCc1nc2cc(C(=O)N3CCCCC3c3ccccc3)ccc2nc1-c1ccc(Cl)cc1` (centres unmarked) [compound 645, 5-(3-(4-chlorophenyl)-7-(2-phenylpiperidine-1-carbonyl)quinoxalin-2-yl)pentanoic acid]: where the note is “[3H]PGD2 competition, Table B”, the Ki lay in the range of 0.0021 to 0.02 µM.

With `O=C(O)CCCCc1nc2cc(C(=O)N3CCCC3c3ccccc3)ccc2nc1-c1ccc(Cl)cc1` (centres unmarked) [compound 646, 5-(3-(4-chlorophenyl)-7-(2-phenylpyrrolidine-1-carbonyl)quinoxalin-2-yl)pentanoic acid], the Ki ([3H]PGD2 competition, Table B) lay within 0.0021 to 0.02 µM.

`O=C(O)CCCCc1nc2cc(C(=O)N3CCCCC3c3ccccn3)ccc2nc1-c1ccc(Cl)cc1` (centres unmarked) [compound 647, 5-(3-(4-chlorophenyl)-7-(2-(pyridin-2-yl)piperidine-1-carbonyl)quinoxalin-2-yl)pentanoic acid] returned a Ki ([3H]PGD2 competition, Table B) of 0.0201 to 0.2 µM.

`O=C(O)CCCCc1nc2cc(C(=O)N3CCC3c3ccccc3)ccc2nc1-c1ccc(Cl)cc1` (centres unmarked) [compound 648, 5-(3-(4-chlorophenyl)-7-(2-phenylazetidine-1-carbonyl)quinoxalin-2-yl)pentanoic acid] yielded an inhibition constant (Ki) ([3H]PGD2 competition, Table B) of 0.0021 to 0.02 µM.

Turning to `CC(c1ccoc1)N(C)C(=O)c1ccc2nc(-c3ccc(Cl)cc3)c(CCCCC(=O)O)nc2c1` (centres unmarked) [compound 649, 5-(3-(4-chlorophenyl)-7-((1-(furan-3-yl)ethyl)(methyl)carbamoyl)quinoxalin-2-yl) pentanoic acid], the Ki ([3H]PGD2 competition, Table B) was 0.0201 to 0.2 µM.

For `O=C(O)CCCCc1nc2cc(C(=O)N3CCCC3c3ccncc3)ccc2nc1-c1ccc(Cl)cc1` (centres unmarked) [compound 650, 5-(3-(4-chlorophenyl)-7-(2-(pyridin-4-yl)pyrrolidine-1-carbonyl)quinoxalin-2-yl)pentanoic acid], the Ki ([3H]PGD2 competition, Table B) was in the range of 0.0201 to 0.2 µM.

In turn, `Cn1ccnc1C1CCCCN1C(=O)c1ccc2nc(-c3ccc(Cl)cc3)c(CCCCC(=O)O)nc2c1` (centres unmarked) [compound 651, 5-(3-(4-chlorophenyl)-7-(2-(1-methyl-1H-imidazol-2-yl)piperidine-1-carbonyl)quinoxalin-2-yl)pentanoic acid] returned a Ki ([3H]PGD2 competition, Table B) of 0.0201 to 0.2 µM.

`Cc1nonc1C1CCCN1C(=O)c1ccc2nc(-c3ccc(Cl)cc3)c(CCCCC(=O)O)nc2c1` (centres unmarked) [compound 652, 5-(3-(4-chlorophenyl)-7-(2-(4-methyl-1,2,5-oxadiazol-3-yl)pyrrolidine-1-carbonyl)quinoxalin-2-yl)pentanoic acid]: the Ki ([3H]PGD2 competition, Table B) lay in the range of 0.0021 to 0.02 µM.

`O=C(O)CCCCc1nc2cc(C(=O)N3CCCCCC3c3cccnc3)ccc2nc1-c1ccc(Cl)cc1` (centres unmarked) [compound 653, 5-(3-(4-chlorophenyl)-7-(2-(pyridin-3-yl)azepane-1-carbonyl)quinoxalin-2-yl)pentanoic acid]: the inhibition constant (Ki) ([3H]PGD2 competition, Table B) was in the range of 0.201 to 0.7 µM.

In the case of `O=C(O)CCCCc1nc2cc(C(=O)N3CCCCC3c3nccs3)ccc2nc1-c1ccc(Cl)cc1` (centres unmarked) [compound 654, 5-(3-(4-chlorophenyl)-7-(2-(thiazol-2-yl)piperidine-1-carbonyl)quinoxalin-2-yl)pentanoic acid], the Ki ([3H]PGD2 competition, Table B) fell in the range of 0.0201 to 0.2 µM.

Where the note is “[3H]PGD2 competition, Table B”, `Cc1csc(C(C)N(C)C(=O)c2ccc3nc(-c4ccc(Cl)cc4)c(CCCCC(=O)O)nc3c2)n1` (centres unmarked) [compound 655, 5-(3-(4-chlorophenyl)-7-(methyl(1-(4-methylthiazol-2-yl)ethyl)carbamoyl)quinoxalin-2-yl)pentanoic acid] gave a Ki of 0.0021 to 0.02 µM.

As for `O=C(O)CCCCc1nc2cc(C(=O)N3CCCC34CCc3cc(F)ccc34)ccc2nc1-c1ccc(Cl)cc1` (centres unmarked) [compound 656, 5-(3-(4-chlorophenyl)-7-(5-fluoro-2,3-dihydrospiro [indene-1,2′-pyrrolidin]-1′-ylcarbonyl)quinoxalin-2-yl)pentanoic acid], the Ki ([3H]PGD2 competition, Table B) lay in the range of 0.0021 to 0.02 µM.

`CC(c1ccon1)N(C)C(=O)c1ccc2nc(-c3ccc(Cl)cc3)c(CCCCC(=O)O)nc2c1` (centres unmarked) [compound 657, 5-(3-(4-chlorophenyl)-7-((1-(isoxazol-3-yl)ethyl)(methyl)carbamoyl)quinoxalin-2-yl) pentanoic acid]: the Ki is 0.0374 µM under setting [1] and 0.0201 to 0.2 µM ([3H]PGD2 competition, Table B).

`O=C(O)CCCCc1nc2cc(C(=O)N3CCCC34CCc3ccncc34)ccc2nc1-c1ccc(Cl)cc1` (centres unmarked) [compound 658, 5-(3-(4-chloro-phenyl)-7-(5,6-dihydrospiro [cyclopenta[c]pyridine-7,2′-pyrrolidin]-1′-ylcarbonyl)quinoxalin-2-yl)pentanoic acid]: for the setting “[3H]PGD2 competition, Table B”, the Ki was 0.0201 to 0.2 µM.

On to `O=C(O)CCCCc1nc2cc(C(=O)N3CCCC3c3nccs3)ccc2nc1-c1ccc(Cl)cc1` (centres unmarked) [compound 659, 5-(3-(4-chlorophenyl)-7-(2-(thiazol-2-yl)pyrrolidine-1-carbonyl)quinoxalin-2-yl)pentanoic acid], for which the Ki ([3H]PGD2 competition, Table B) was in the range of 0.0201 to 0.2 µM.

Take `Cc1noc(C2CCCCN2C(=O)c2ccc3nc(-c4ccc(Cl)cc4)c(CCCCC(=O)O)nc3c2)n1` (centres unmarked) [compound 660, 5-(3-(4-chlorophenyl)-7-(2-(3-methyl-1,2,4-oxadiazol-5-yl)piperidine-1-carbonyl)quinoxalin-2-yl)pentanoic acid]: under “[3H]PGD2 competition, Table B”, the Ki is 0.0201 to 0.2 µM.

`O=C(O)CCCCc1nc2cc(C(=O)N3CCOC[C@H]3c3ccccc3)ccc2nc1-c1ccc(Cl)cc1` [compound 661, (R)-5-(3-(4-chlorophenyl)-7-(3-phenylmorphohne-4-carbonyl)quinoxalin-2-yl)pentanoic acid] registered a Ki ([3H]PGD2 competition, Table B) of 0.0021 to 0.02 µM.

For the compound `O=C(O)CCCCc1nc2cc(C(=O)N3CCCC3c3ccccn3)ccc2nc1-c1ccc(Cl)cc1` (centres unmarked) [compound 662, 5-(3-(4-chlorophenyl)-7-(2-(pyridin-2-yl)pyrrolidine-1-carbonyl)quinoxalin-2-yl)pentanoic acid], the Ki ([3H]PGD2 competition, Table B) was in the range of 0.0201 to 0.2 µM.

These data come from patent US9469615B2, “Quinoxalines and AZA-quinoxalines as CRTH2 receptor modulators” (Merck Sharp & Dohme Corp., priority 2010, dated 2016).
